Results: patent US8026070B2 (priority 2005, dated 2011)
“And” between values parts separate entries of the source, which are not always exact repeats. Equal values may be shown once. Read-outs that look alike come from different tables or passages of the source.

Tested on: human recombinant PrP spiked into human plasma

| Structure (SMILES) | Ratio of Signals (ratio of signals from spiked plasma and only plasma samples) | Effect on detection of spiked human recombinant prion protein in human plasma (all concentrations (1, 10, 100 mM) in the sample preparation buffer) | Effect on detection of spiked human recombinant prion protein in human plasma | Non-specific binding, optical density at 450 nm | Only Plasma, optical density at 450 nm | Plasma with human recombinant PrP, optical density at 450 nm |
| --- | --- | --- | --- | --- | --- | --- |
| NC[C@H]1CC[C@H](C(=O)O)CC1 [AMCHA, trans-(aminomethyl)cyclohexanecarboxylic acid] | 1.7 and 1.6 and 1.8 | enhanced the detection | – | – | – | – |
| NCCCCCC(=O)O [ACA, 6-aminohexanoic acid] | 1.3 and 1.4 and 1.7 | – | enhanced the detection | 0.4665 and 0.4128 and 0.4549 | 0.4036 and 0.4098 and 0.3737 | 0.52 and 0.5723 and 0.6507 |
